Results published in paper PMC10318456, “Selective inhibitors of the PSEN1–gamma-secretase complex” (The Journal of Biological Chemistry, 2023).
Where “and” joins values, the source holds several entries; their conditions need not be identical. Equal entries are not always repeated.

Legend:
[1] = target: T1, PSEN1 F388A–APH1A γ-secretase complex (Homo sapiens, UniProt P49768, F388A); test: Aβ40 secretion, MEF cell pool restored with PSEN1 F388A–APH1A; assay type: cell-based; conditions: decimal comma; for IC50: PSEN1 F388A (TM7)–APH1A cell pool, N = 3 to 4, mean (95% CI)
T1 construct: expressed in transfected cells; host or cells: Psen1/2 double KO/Aph1ABC triple KO MEFs, pools without clonal selection
Method: (§1) We turned to experimental site–directed mutagenesis and selected a series of amino acids (Fig. 3) in the entrance channel for mutation to alanine. […] More importantly, they were all enzymatically active as shown by the secretion of Aβ40 in the supernatants of the cell cultures (Fig. 3B).
(§2) Conditional Psen1/2 double KO mice were crossed with conditional Aph1ABC triple KO mice ([29], [52], [58], [59]). At embryonic day 7.5, embryos were dissected and dissociated, and cells were plated in the presence of Dulbecco’s modified Eagle’s medium (DMEM)/F12 50% fetal calf serum (FCS) (Invitrogen). Primary MEFs were immortalized by transduction with LargeT antigen. Psen1/2 double KO/Aph1ABC triple KO MEFs were generated by transduction with a Cre-GFP–expressing adenoviral vector, and GFP-positive MEFs were sorted by fluorescence-activated cell sorting analysis. Psen1/2 Aph1ABC-deficient MEFs were maintained in DMEM/f12 10% FCS. To rescue γ-secretase expression, Psen1/2 double KO/Aph1ABC triple KO MEFs were transduced using Murine Stem Cell Virus retroviral vector system (pMSCV) viral vectors (Clontech) containing the human coding sequences of the different PSEN and APH1 homologs and the zeocin selection marker. An Internal Ribosome Entry Site sequence was cloned between the coding sequences for PSEN and APH1 to ensure co-expression of both proteins. Stable transfected cell lines were selected using 500-μg/ml zeocin (Invitrogen). Four different combinations were made: PSEN1 and APH1AL, PSEN1 and APH1B, PSEN2 and APH1AL, and PSEN2 and APH1B. These cell lines were transduced with pMSCV viral vectors (Clontech) expressing APP-C99-GFP-puromycin. […]
(§3) The number of plated cells and incubation times were determined in respect to linearity of Aβ peptide secretion, the dynamic range of Aβ peptide quantification in the medium, and sensitivity to dimethylsulfoxide (DMSO). […] The cell viability was assessed using the CellTiter-Glo Luminescent assay (Promega) that measures ATP production. […] We however measured five compounds at the Leuven site and noticed that absolute IC50 values were different (Fig. S2). […]

[2] = system: PSEN1 versus PSEN2 γ-secretase complexes; test: Comparison of the four MEF cell lines: selectivity between γ-secretase complexes (IC50 ratios); assay type: cell-based, human
Source text: Mouse embryonic fibroblast (MEF) cells deficient for the Psen and Aph1 genes (Psen1/2^−/−, Aph1ABC^−/−) were reconstituted with human PSEN1 or PSEN2 and with human APH1A or APH1B to generate four independent cell lines, each constitutively expressing exclusively one type of γ-secretase complex (Fig. S1A) ([19]). A human APP-C99-GFP reporter was introduced to enable the measurement of Aβ peptides in the conditioned media of the cells to monitor γ-secretase activity. The assay was established in a 96-well format.
GraphPad Prism 7 software was used to generate inhibition fitting curves (four-parameter logistic equation, nonlinear regression) and to determine IC50 and 95% CI values (Fig. S2). Selectivity values (IC50 ratios of PSEN1 versus PSEN2) above 10 are highlighted in red.
The number of plated cells and incubation times were determined in respect to linearity of Aβ peptide secretion, the dynamic range of Aβ peptide quantification in the medium, and sensitivity to dimethylsulfoxide (DMSO). […] MEF cells were plated in DMEM F12 supplemented with 10% FCS at 10,000 cells per well in 96-well clear bottom plates in the late afternoon and cultured for 16 h at 37 °C, 5% CO2. In the morning of the second day, the medium was replaced with 60 μl of DMEM/F12 supplemented with 2% FCS, and GSI or DMSO (controls) were added. Compounds were tested in serial dilutions with concentrations ranging from […] to 0.1 nM with 3-fold changes. The final concentration of DMSO in all wells was 0.2%. Plates were put in the incubator again at 37 °C, 5% CO2. After 8 h, the culture media were collected, and 30 μl was used to measure Aβ40 peptides. The cell viability was assessed using the CellTiter-Glo Luminescent assay (Promega) that measures ATP production. All screens were performed at one site, and reported IC50 values throughout the manuscript are from this site (Beerse) unless otherwise indicated.
GraphPad Prism 7 software (https://www.graphpad.com) was used to generate inhibition fitting curves (four-parameter logistic equation, nonlinear regression) and to determine IC50 values and 95% CI.

[3] = target: T2, PSEN1 S169A–APH1A γ-secretase complex (Homo sapiens, UniProt P49768, S169A); test: Aβ40 secretion, MEF cell pool restored with PSEN1 S169A–APH1A; assay type: cell-based; conditions: PSEN1 S169A (TM3)–APH1A cell pool; N = 3 to 4; mean (95% CI); decimal comma
T2 construct: expressed in transfected cells; host or cells: Psen1/2 double KO/Aph1ABC triple KO MEFs, pools without clonal selection
Method: as §1
Conditional Psen1/2 double KO mice were crossed with conditional Aph1ABC triple KO mice ([29], [52], [58], [59]). At embryonic day 7.5, embryos were dissected and dissociated, and cells were plated in the presence of Dulbecco’s modified Eagle’s medium (DMEM)/F12 50% fetal calf serum (FCS) (Invitrogen). Primary MEFs were immortalized by transduction with LargeT antigen. Psen1/2 double KO/Aph1ABC triple KO MEFs were generated by transduction with a Cre-GFP–expressing adenoviral vector, and GFP-positive MEFs were sorted by fluorescence-activated cell sorting analysis. Psen1/2 Aph1ABC-deficient MEFs were maintained in DMEM/f12 10% FCS. […]
as §3

[4] = target: T3, PSEN1 I387A–APH1A γ-secretase complex (Homo sapiens, UniProt P49768, I387A); test: Aβ40 secretion, MEF cell pool restored with PSEN1 I387A–APH1A; assay type: cell-based; conditions: decimal comma; for IC50: PSEN1 I387A (TM7)–APH1A cell pool, N = 3 to 4, mean (95% CI)
T3 construct: expressed in transfected cells; host or cells: Psen1/2 double KO/Aph1ABC triple KO MEFs, pools without clonal selection
Method: as §1, §2, §3

| SMILES | IC50 [1] | selectivity for PSEN1 complexes versus PSEN2 complexes ([2]; IC50 ratios of PSEN1 versus PSEN2, MEF cell lines) | selectivity PSEN1–APH1B versus PSEN1–APH1A ([2]; MEF cell lines) | IC50 [3] | IC50 [4] | IC50 fold change to WT ([1]; PSEN1 F388A–APH1A cell pool) | selectivity toward the different γ-secretase complexes ([2]; four MEF cell lines) | IC50 fold change to WT ([4]; PSEN1 I387A–APH1A cell pool) |
| --- | --- | --- | --- | --- | --- | --- | --- | --- |
| O=S(=O)(c1ccc(Cl)cc1)N1[C@H]2CC[C@@H]([C@H]1c1ccc(C(F)(F)F)cc1)[C@@H](O)C2 [(+)-9b] | 0.403 µM | > 250 fold | 4 fold | 0.0078 µM | 0.283 µM |  |  |  |
| C[C@H](NC(=O)Cc1cc(F)cc(F)c1)C(=O)N[C@H](C(=O)OC(C)(C)C)c1ccccc1 [DAPT] | 0.277 µM |  |  | 0.026 µM | 0.882 µM | 1,642 fold | < 10 fold | 5,225 fold and > 3 fold |
